Assay results published in paper PMC10424186 (Journal of Medicinal Chemistry, 2023).
Read-outs that look alike come from different tables or passages of the source.

What was measured:
[1] = tested on: U2OS bone osteosarcoma cells; assay: CyQuant viability assay (DNA content), U2OS; assay type: cell-based; details: 1.0–100 μM, 72 h
Protocol: Cell proliferation/viability was measured using MTS (CellTiter 96 Aqueous One 667 Solution Cell Proliferation Assay, Promega) and CyQUANT (Thermo Fisher) assays. CellTiter 96 Aqueous MTS reagent (Promega) and phenazine methosulfate (Sigma-Aldrich) were dissolved in phosphate-buffered saline (PBS) according to the manufacturer’s protocol. The MTS working reagent was made according to the manufacturer’s protocol and added to each well containing the cells. Plates were incubated for 1 h at 37 °C under 5% CO2, protected from light, and then the absorbance was measured at 490 nm using an EnSpire Multimode plate reader (PerkinElmer). For the cyQUANT assay, the reagents were prepared according to the manufacturer’s protocol and added to the cells. The cells were incubated for 1 h at 37 °C under 5% CO2, protected from light; fluorescence was then measured with excitation at ∼485 nm and emission detection at ∼530 nm using an EnSpire Multimode plate reader.
viability of U2OS bone osteosarcoma cells.
derivatives 19i and 19j (1.0, 5.0, 10, 50, 100 μM) for 72 h and then tested for viability using the CyQuant assay,
which measures DNA content. Data represent mean ± SEM from independent experiments.
(1 picture or pasted object on this page, not shown here)

A549 cells [2] = assay: Cell-cycle analysis (propidium iodide, FACS); assay type: cell-based; details: 1.0 μM, 24 h
Protocol: (§1) (a) U2OS bone osteosarcoma, (b) A549 lung adenocarcinoma, and (c) PC3 prostate adenocarcinoma cells were treated with the indicated doses of 19i and 19j (1.0, 5.0, 10, 50, and 100 μM) for 72 h and then tested for viability using the 3-(4,5-dimethylthiazol-2-yl)-5-(3-carboxymethoxyphenyl)-2-(4-sulfophenyl)-2H-tetrazolium (MTS) assay. A549 cells were treated with 19i or 19j (1.0 μM) for 24 h, then stained with (d) propidium iodide and analyzed by FACS or (e) DAPI staining for nuclei (left) and anti-53BP1 (for 53BP1 bodies, right). Cells were counted for 53BP1 bodies (f) and micronuclei (g). Data represent mean ± SEM from three (a–d) or four (f–g) independent replicates. For 53BP1 bodies, a minimum of 300 cells were counted per sample. For micronuclei, a minimum of 500 cells were counted per sample. Statistical analyses used one-way ANOVA with Tukey’s post hoc test [with p-value ≤ 0.01 (**)].
(§2) Because JMJD5 RNA interference has been associated with disturbances in the cell cycle,[1],[2],[81],[82] we measured phase distribution by flow cytometry in A549 cells (Figure 6d). Treatment with 19i or 19j for 24 h caused a reduction in G1-phase cells, with a corresponding increase in S- and G2/M-phase cells. […] We have recently reported that JMJD5 loss of function induces replication stress,[14] which is defined as a perturbation that slows or stalls DNA replication.[83] Unresolved replication stress can be measured by an increase in G1-phase 53BP1 “bodies” and micronuclei (Figure 6e), which are extranuclear DNA bodies that result from DNA cleavage and genome instability following replication stress.
Cell-cycle analyses were performed using A549 cells fixed in ice-cold 70%v/v ethanol. Cells were incubated with 100 μg/mL RNase A (Thermo Fisher Scientific), stained with 20 μg/mL propidium iodide, and then analyzed using Beckman Coulter CytoFLEX S. Representative FACS profiles were generated using Beckman CytExpert software.

[3] = tested on: A549 lung adenocarcinoma cells; assay: MTS cell viability assay, A549; assay type: cell-based; details: Homo sapiens, 72 h, read-out: half-maximum cytotoxicity concentration (CC50)
From the text: (§3) A biochemical readout of JMJD5 arginine residue hydroxylase activity in cells is not available; we thus focused our studies on biological readouts previously linked to JMJD5 function in order to investigate cellular responses resulting from JMJD5 inhibitor treatment. JMJD5 loss of function by RNA interference is reported to affect tumor cell proliferation and viability;[16],[18],[20],[21] we therefore studied the effects of 19i and 19j on the growth of three different tumor cell lines.
as §1, with “Data represent mean ± SEM from three (a–d) or four (f–g) independent replicates.” left out, “Statistical analyses used one-way ANOVA with Tukey’s post hoc test [with p-value ≤ 0.01 (**)].” left out
(§4) Cell proliferation/viability was measured using MTS (CellTiter 96 Aqueous One 667 Solution Cell Proliferation Assay, Promega) and CyQUANT (Thermo Fisher) assays. […]

[4] = tested on: U2OS bone osteosarcoma cells; assay: MTS cell viability assay, U2OS; assay type: cell-based; details: for CC50: Homo sapiens
From the text: as §3
as §1, with “(**)]. […]” for “(**)].”
Cell proliferation/viability was measured using MTS (CellTiter 96 Aqueous One 667 Solution Cell Proliferation Assay, Promega) and CyQUANT (Thermo Fisher) assays. […] Plates were incubated for 1 h at 37 °C under 5% CO2, protected from light, and then the absorbance was measured at 490 nm using an EnSpire Multimode plate reader (PerkinElmer). […] The cells were incubated for 1 h at 37 °C under 5% CO2, protected from light; fluorescence was then measured with excitation at ∼485 nm and emission detection at ∼530 nm using an EnSpire Multimode plate reader.

A549 cells [5] = assay: Replication stress: 53BP1 bodies and micronuclei (immunofluorescence/DAPI); assay type: cell-based; details: 1.0 μM, 24 h
Protocol: as §1, §2
Cells on coverslips were pre-extracted on ice for 5 min using a buffer containing 20 mM NaCl, 3 mM MgCl2, 300 mM sucrose, 10 mM PIPES, and 0.5%v/v Triton X-100 and fixed using 4%v/v paraformaldehyde (PFA) in PBS for 15 min at ambient temperature. Cells were then permeabilized in 0.1%v/v Triton X-100 in PBS at ambient temperature for 10 min and blocked in 1%w/v bovine serum albumin (BSA) in PBS for 1 h at ambient temperature. Coverslips were incubated with anti-53BP1 antibody (Bio-Techne, NB100-904V) diluted in 1%w/v BSA in PBS at ambient temperature for 1 h in the dark. Coverslips were then washed three times with cold 1%w/v BSA in PBS following incubation for 1 h with secondary antibodies (anti-mouse 555 nm A31570 or anti-rabbit 488 nm A11070, Thermo Fisher). The coverslips were washed three times with cold PBS and incubated for 10 min with 4′,6-diamidino-2-phenylindole (DAPI) (Invitrogen) to stain for nuclei. Prolong Gold Antifade Reagent (Cell Signaling Technology) was used to mount the coverslips onto microscope slides. Images were taken using 40× objective on a Leica DM6000 fluorescent microscope and processed with ImageJ.

[6] = tested on: PC3 prostate adenocarcinoma cells; assay: MTS cell viability assay, PC3; assay type: cell-based; details: 1.0–100 μM, 72 h
From the text: as §3
as §1, with “Data represent mean ± SEM from three (a–d) or four (f–g) independent replicates.” left out, “Statistical analyses used one-way ANOVA with Tukey’s post hoc test [with p-value ≤ 0.01 (**)].” left out
as §4

AspH = target: T1, AspH (Homo sapiens, UniProt Q12797); assay: SPE-MS AspH inhibition assay (hFX-CP101–119 hydroxylation); assay type: biochemical; details: Table 2; His6-AspH315–758 0.05 μM, 1.0 μM hFX-CP101–119; n = 2, mean ± SD
T1 construct: N-terminally His6-tagged AspH315–758; made in house; host or cells: Escherichia coli
T1 sequence (Q12797 315-758): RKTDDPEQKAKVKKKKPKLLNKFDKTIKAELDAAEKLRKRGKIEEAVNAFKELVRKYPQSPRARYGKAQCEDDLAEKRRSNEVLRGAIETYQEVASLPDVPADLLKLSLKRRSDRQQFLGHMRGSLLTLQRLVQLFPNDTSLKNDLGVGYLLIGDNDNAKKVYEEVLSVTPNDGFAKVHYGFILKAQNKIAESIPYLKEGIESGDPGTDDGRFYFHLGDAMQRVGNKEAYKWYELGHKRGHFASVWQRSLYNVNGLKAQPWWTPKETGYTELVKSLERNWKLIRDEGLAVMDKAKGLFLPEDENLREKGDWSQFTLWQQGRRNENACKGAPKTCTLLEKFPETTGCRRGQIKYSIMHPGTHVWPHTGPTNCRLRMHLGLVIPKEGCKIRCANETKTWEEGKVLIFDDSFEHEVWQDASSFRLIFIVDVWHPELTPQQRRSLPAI
Protocol: (§5) H3_1-15K9me3, histone 3 (H3), residues 1–15 with K9 of H3-bearing three methyl groups at the N^ε-position, K4 of H3 substituted by an alanine residue, and K14 of H3 by an isoleucine residue,[73] for KDM4E; and RPL27A, residues 31–49, for RIOX2 (Mina53).[44]
(§6) Cosubstrate/cofactor stock solutions [L-ascorbic acid/LAA: 50 mM in MQ-grade water; 2-oxoglutarate/2OG: 10 mM in MQ-grade water; ammonium iron(II) sulfate hexahydrate/FAS/(NH4)2Fe(SO4)2·6H2O: 400 mM in 20 mM HCl diluted to 1 mM in MQ-grade water] were freshly prepared from commercial solids (Sigma-Aldrich) on the day the assays were performed. The JMJD5,[42] PHD2,[70] FIH,[70] KDM4E,[72],[73] RIOX2,[44] and AspH[45] […] For JMJD5, PHD2, FIH, RIOX2, and AspH, substrate hydroxylation was monitored (+16 Da mass shift), while for the KDM4E substrate, demethylation was monitored (−14 Da mass shift) by SPE-MS.

KDM4E = target: T2, KDM4E (Homo sapiens, UniProt B2RXH2); assay: SPE-MS KDM4E inhibition assay (demethylation of H3 1–15 K9me3); assay type: biochemical; details: Table 2, 10.0 μM H3 1–15 K9me3, n = 2, mean ± SD
T2 construct: made in house; host or cells: Escherichia coli
T2 sequence (B2RXH2 1-506): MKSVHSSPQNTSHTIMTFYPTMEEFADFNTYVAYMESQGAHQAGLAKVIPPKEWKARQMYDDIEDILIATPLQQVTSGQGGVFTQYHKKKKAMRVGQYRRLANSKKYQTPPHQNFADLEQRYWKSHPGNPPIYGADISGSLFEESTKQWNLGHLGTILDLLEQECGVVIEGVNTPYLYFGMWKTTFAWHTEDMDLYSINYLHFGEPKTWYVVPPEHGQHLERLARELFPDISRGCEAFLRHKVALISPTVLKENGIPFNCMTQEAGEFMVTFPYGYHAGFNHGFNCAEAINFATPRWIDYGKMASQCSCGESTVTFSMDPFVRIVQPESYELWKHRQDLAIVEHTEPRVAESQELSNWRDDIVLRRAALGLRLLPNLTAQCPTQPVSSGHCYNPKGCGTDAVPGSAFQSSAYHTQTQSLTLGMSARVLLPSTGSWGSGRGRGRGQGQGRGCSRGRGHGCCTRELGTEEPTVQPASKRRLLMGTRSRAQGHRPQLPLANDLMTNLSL
Protocol: as §5, §6

RIOX2 = target: T3, RIOX2 (Homo sapiens, UniProt Q8IUF8); assay: SPE-MS RIOX2 inhibition assay (RPL27A31–49 hydroxylation); assay type: biochemical; details: Table 2; His6-RIOX2 26–465 […], 5.0 μM RPL27A31–49; n = 2, mean ± SD
T3 construct: N-terminally His6-tagged RIOX2_26–465; made in house; host or cells: Escherichia coli
T3 sequence (Q8IUF8 26-465): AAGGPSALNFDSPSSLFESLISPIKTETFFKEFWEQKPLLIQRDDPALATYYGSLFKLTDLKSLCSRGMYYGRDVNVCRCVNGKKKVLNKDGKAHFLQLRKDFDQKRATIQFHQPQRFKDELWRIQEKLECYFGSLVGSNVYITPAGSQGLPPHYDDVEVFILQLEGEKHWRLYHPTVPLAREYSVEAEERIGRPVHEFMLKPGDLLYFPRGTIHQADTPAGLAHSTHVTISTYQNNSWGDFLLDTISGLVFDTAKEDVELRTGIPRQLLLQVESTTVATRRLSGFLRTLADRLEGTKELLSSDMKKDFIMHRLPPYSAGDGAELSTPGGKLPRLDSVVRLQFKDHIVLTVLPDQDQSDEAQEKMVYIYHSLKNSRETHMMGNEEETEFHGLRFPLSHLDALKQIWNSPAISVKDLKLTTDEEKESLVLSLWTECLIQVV
Protocol: Cosubstrate/cofactor stock solutions [L-ascorbic acid/LAA: 50 mM in MQ-grade water; 2-oxoglutarate/2OG: 10 mM in MQ-grade water; ammonium iron(II) sulfate hexahydrate/FAS/(NH4)2Fe(SO4)2·6H2O: 400 mM in 20 mM HCl diluted to 1 mM in MQ-grade water] were freshly prepared from commercial solids (Sigma-Aldrich) on the day the assays were performed. […] For JMJD5, PHD2, FIH, RIOX2, and AspH, substrate hydroxylation was monitored (+16 Da mass shift), while for the KDM4E substrate, demethylation was monitored (−14 Da mass shift) by SPE-MS.

FIH = target: T4, FIH (Homo sapiens, UniProt Q9NWT6); assay: SPE-MS FIH inhibition assay (HIF-1α CAD hydroxylation); assay type: biochemical; details: Table 2; His6-FIH 0.15 μM, 5.0 μM HIF-1α CAD; n = 2, mean ± SD
T4 construct: made in house; host or cells: Escherichia coli
T4 sequence (Q9NWT6 whole entry): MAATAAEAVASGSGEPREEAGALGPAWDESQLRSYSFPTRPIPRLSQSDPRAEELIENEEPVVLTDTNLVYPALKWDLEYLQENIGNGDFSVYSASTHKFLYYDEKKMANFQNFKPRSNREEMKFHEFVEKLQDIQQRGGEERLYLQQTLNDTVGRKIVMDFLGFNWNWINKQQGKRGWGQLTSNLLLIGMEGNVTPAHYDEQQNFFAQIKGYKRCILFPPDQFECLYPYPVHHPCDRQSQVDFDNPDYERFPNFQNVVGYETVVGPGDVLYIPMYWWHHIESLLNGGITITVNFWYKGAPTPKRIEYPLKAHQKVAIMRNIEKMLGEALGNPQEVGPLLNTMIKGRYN
Protocol: HIF-α CAD, residues 788–822, for FIH;[70]
Cosubstrate/cofactor stock solutions [L-ascorbic acid/LAA: 50 mM in MQ-grade water; 2-oxoglutarate/2OG: 10 mM in MQ-grade water; ammonium iron(II) sulfate hexahydrate/FAS/(NH4)2Fe(SO4)2·6H2O: 400 mM in 20 mM HCl diluted to 1 mM in MQ-grade water] were freshly prepared from commercial solids (Sigma-Aldrich) on the day the assays were performed. […] FIH,[70] […] SPE-MS inhibition assays were performed as described in the cited literature, using isolated recombinant human enzymes (His6-thioredoxin-JMJD5,[42] His6-PHD2_181–426,[70] His6-FIH,[70] His6-KDM4E,[72],[73] His6-RIOX2_26–465,[87],[88] and His6-AspH315–758[48],[80]) and synthetic peptide substrates (RPS6_128–148 for JMJD5;[42] HIF-α CODD558–574 for PHD2;[70] HIF-α CAD788–822 for FIH;[70] H3_1–15K9me3 for KDM4E;[73] RPL27A31–49 for RIOX2;[44],[71] and hFX-CP101–119 for AspH;[45],[48] see above). For JMJD5, PHD2, FIH, RIOX2, and AspH, substrate hydroxylation was monitored (+16 Da mass shift), while for the KDM4E substrate, demethylation was monitored (−14 Da mass shift) by SPE-MS.

PHD2 = target: T5, PHD2 (Homo sapiens, UniProt Q9GZT9); assay: SPE-MS PHD2 inhibition assay (HIF-1α CODD hydroxylation); assay type: biochemical; details: Table 2; PHD2 181–426 […], 5.0 μM HIF-1α CODD; n = 2, mean ± SD
T5 construct: His6-PHD2_181–426; made in house; host or cells: Escherichia coli
T5 sequence (Q9GZT9 181-426): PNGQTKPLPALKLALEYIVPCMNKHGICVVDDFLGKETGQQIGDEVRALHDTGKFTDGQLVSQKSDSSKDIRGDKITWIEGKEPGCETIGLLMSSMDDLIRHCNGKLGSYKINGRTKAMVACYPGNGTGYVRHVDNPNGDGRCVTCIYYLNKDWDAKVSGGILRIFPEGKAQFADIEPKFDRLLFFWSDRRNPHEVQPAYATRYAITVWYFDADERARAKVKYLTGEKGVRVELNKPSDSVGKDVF
Protocol: as §5, §6

Row | Structure (SMILES) | viability (CyQuant, in words) [1] | G1-phase cells (A549 cells [2]) | S- and G2/M-phase cells (A549 cells [2]) | Sub-G1-phase cell numbers (A549 cells [2]) | CC50 [3] [µM] | effect on cell growth (in words) ([4]; 1.0–100 μM, 72 h, MTS) | CC50 ([4]; supplementary CSV, read-out: CC50 U2OS cells) [µM] | 53BP1 bodies (A549 cells [5]) | micronuclei (A549 cells [5]) | effect on cell growth (in words) [6] | CC50 ([4]; 72 h, MTS, read-out: half-maximum cytotoxicity concentration (CC50)) [µM] | IC50 (AspH) [µM] | IC50 (KDM4E) [µM] | IC50 (RIOX2) [µM] | IC50 (FIH) [µM] | IC50 (PHD2) [µM]
1 | COC(=O)c1cc(C(=O)OC)c(NCc2ccccc2OC)cn1 [Compound 19i] | reduced viability | reduction | increase | increased | 10.7 | did not significantly affect | > 100 | significantly induced | significantly induced | did not significantly affect | – | – | – | – | – | –
2 | COC(=O)c1cc(C(=O)OC)c(NCc2ccccc2C2CC2)cn1 [Compound 19j] | reduced viability | reduction | increase | increased | 2.1 | – | – | significantly induced | significantly induced | – | 10 | – | – | – | – | –
3 | O=C(O)c1cc(C(=O)O)c(NCc2ccccc2C2CC2)cn1 [Compound 20j, 5-((2-cyclopropylbenzyl)amino)pyridine-2,4-dicarboxylic acid] | – | – | – | – | – | – | – | – | – | – | – | 8.9 ± 5 | > 50 | > 50 | > 50 | > 50
